The values that follow come from US20040072171A1, “Method for identifying compounds for modulating the activity of a tumor suppressor protein” (priority 2000, published 2004).

Assay [1] deals with merlin. The assay is described as follows: Immune blot for dephosphorylation of merlin in clone 54 lysates. The assay is classed as cell-based, rat. The note with it: exponentially growing clone 54 cells, 8 hours doxycyclin. As for the experimental part:
For the immunoprecipitation of merlin, the cells were grown to confluence in 10 cm dishes, washed once with ice-cold PBS and then placed on ice and lysed with 1 ml lysis buffer per plate (50 mM Tris pH 7.4, 150 mM NaCl, 3 mM MgCl2, 0.5% NP-40, 1 mM PMSF, 10 μg/aprotinin ml, 10 μg/ml leupeptin). The DNA was sheared using a gauge 26 needle. The lysate was clarified by centrifugation, and the supernatant was incubated with 5 μg/ml merlin antibody at 4° C. overnight with gentle rotation. The reaction was subsequently treated with 30 μl of protein A agarose (dianova) and left to rotate for a further 3 hours at 4° C. The immune complexes were washed 4 times with cold lysis buffer and separated in 50 μl 2×Laemmli sample buffer. The protein was dissolved in a 10% SDS-PAGE, and immunoblots were generated with a merlin-specific antibody. For the treatment with calf intestine phosphatase (CIP), the lysate was incubated for 1 hour at 30° C. with 1 unit CIP prior to the immunoprecipitation. The coimmunoprecipitation of merlin and CD44 was carried out analogously, except that a different lysis buffer was used (20 mM Tris pH 7.4, 50 mM NaCl, 3 mM MgCl2, 0.5% NP40). The lysates were preincubated for 2 hours with protein A/G-agarose (Dianova) to remove unspecifically binding components, whereupon 5 μg/ml CD44 antibody 5G8 was added and the reaction was allowed to rotate overnight. […]

Assay [2] deals with Erk. The assay is described as follows: PDGF-dependent phosphorylation of Erk. The assay is classed as cell-based, rat. The note with it: clone 54, serum starvation, doxycyclin 8 hours, PDGF 5 ng/ml 5 minutes. How it is done: The cells were used to seed 6-well plates at Low density and 24-well plates at high density, with or without 0.8% methylcellulose. The cells remained free from serum for 24 hours and were treated with doxycyclin or left untreated for the last 8 hours. Then, the cells were stimulated for 5 minutes with 5 ng/ml PDGF and subsequently harvested in 2×Laemmli sample buffer, and the cell extracts were separated on a 10% SDS polyacrylamide gel. After the proteins had been transferred to the membrane, immunoblots were prepared with a phospho-Erk-specific antibody, and the bound antibody was detected. As a control for uniform loading of the separating gel with Erk, the membrane was stripped (freed from antibody) and anti-Erk-blotted.
C. […] Cells of clone 54 were plated at high or low cell density, left to grow for 24 hours with serum starvation and treated during the last 8 hours with doxycyclin (+) or left untreated (−). Where stated, the cells were treated for 2 hours with hyaluronidase (HAase, 5 U/μl), for 10 minutes with solCD44wt and/or for 5 minutes with PDGF (5ng/ml). The proteins of the lysates were separated by means of SDS-PAGE, and immune blots were carried out with phospho-Erk and Erk-specific antibodies. Clone 63 gave the same results as all the experiments in FIG. 6.
C. […] Cells were grown at low cell density and subsequently treated with doxycyclin with serum starvation cells as shown in FIG. 6C and assayed for the PDGF-dependent phosphorylation of Erk. Where stated, HA (100 μg/ml) was present for 10 minutes and PDGF (5 ng/ml) was present for 5 minutes. Experiments A to C were also carried out with clone 63, and similar results were obtained.

Assay [3] concerns p27^Kip1. The assay is described as follows: Induction of p27Kip1 in NIH3T3 cells (immune blot). The assay is classed as cell-based, murine. The note with it: for level of cell division cycle inhibitor p27^Kip1: 30 minutes, hyaluronan 100 μg/ml or solCD44s 10 ng/ml. As for the experimental part: B. Induction of p27^Kip1 by treatment with hyaluronan. […] The next day, they were treated either with 100 μg/ml of hyaluronan or with 10 ng/ml solCD44s, and the plates were incubated for 30 minutes. The cells were harvested in 2×Laemmli sample buffer, and an immune blot with a polyclonal, p27^Kip1-specific antibody from rabbit was carried out (C-19, Santa Cruz). A polyclonal actin-antibody from goat (I-19, Santa Cruz) was used as loading control.

Assay [4] relates to RT4-D6P2T cells. The assay is described as follows: Growth in culture vessels of merlin-inducible schwannoma clone 54. Particulars: for merlin-dependent growth inhibition in confluent cell cultures: merlin expression induced by doxycyclin. Format: cell-based, rat. How it is done: Growth in culture vessels: To determine the growth curves, each well of a 24-well plate was seeded with 5×10^3 cells (in FIG. 7: 2.5×10^3), and determinations in triplicate were carried out every 24 hours (days). Definition of the growth conditions:
1. Low cell density (=logarithmic or exponential growth) means a cell density of 500 cells per cm^2 24 hours after seeding.
2. high cell density (=confluent growth condition) is defined as a cell density of 5×10^3 cells per cm^2 24 hours after seeding.
A. The soluble extracellular domain of CD44 sequestrates different ligands of exponentially growing and confluent cells. In each case 3 wells of a 24-well plate were seeded in triplicate with cells of clone 54, and the cells were treated with doxycyclin in order to induce the expression of merlin. On day 1 (logarithmically growing cells) and on day 3 (confluent cells), 10 ng/ml of soluble extracellular CD44 domain, either of the wild type (solCD44 or solCD44wt) or of the glycosaminoglycan-binding mutant (solCD44mut), were added. As the control, cells were treated in the same manner without doxycylin (since the addition of solCD44 was ineffective, only one group of data is shown).
B. Hyaluronate delays growth. In each case 3 wells of a 24-well plate were seeded in triplicate with cells of clone 54. Doxycyclin and hyaluronate (100 μg/ml) were added as stated.

In assay [5] the test system is NIH3T3 cells. As to the kind of experiment: Growth rate of NIH3T3 cells. Format: cell-based, murine. Particulars: 100 μg/ml, cell counts on the following 3 days. How it is done: A. Growth rate of NIH3T3 cells after addition of hyaluronan. 24-well plates were seeded in triplicate with NIH3T3 cells at a density of 0.5×10^4 cells. Where stated, the culture medium was treated the next day with 100 μg/ml hyaluranon (Healon). The cell counts were determined on each of the following 3 days.

Assay [6] concerns MEK. Particulars: merlin-inducible schwannoma cells, inhibitor for 2 or 12 hours. As for the experimental part:
Merlin-inducible schwannoma cells were plated onto 6-well plates at a density of 1.5×10^4 cells per well. 1 μg/ml doxycyclin was added where stated. After 16 hours, an MEK activation inhibitor (UO126; Promega) was added for 2 or 12 hours. 0 means no addition of inhibitor. The cells were harvested and solubilized in 2×Laemmli buffer, and the proteins were separated on a 10% SDS polyacrylamide gel. The proteins were transferred to a membrane, and an immune blot was carried out either with the polyclonal p27^Kip1 antibody C-19 from rabbit or with the Rb-specific antibody C-15 (Santa Cruz). The actin-specific antibody I-19 was used as loading control.

As for “solCD44wt: soluble extracellular CD44 domain of the wild type”, the “phosphorylation state of merlin” value in assay [1] is on record as “Induced dephosphorylation of merlin”. In addition, the “PDGF-dependent phosphorylation of Erk / activation of merlin” value in assay [2] is “nullifies blocking of the activation of merlin”. In addition, in assay [3], the “level of cell division cycle inhibitor p27^Kip1” value is reported as “increased”. Moreover, the “merlin-dependent growth inhibition in confluent cell cultures” value in assay [4] is “growth inhibition is nullified”. Moreover, in assay [4] (control cells without doxycyclin, 10 ng/ml), the “effect on growth of cells without doxycyclin” value is “ineffective”. Besides, the “growth of cultures in the logarithmic growth phase” value in assay [4] (logarithmically growing cells, merlin induced by doxycyclin, soluble CD44 10 ng/ml) is “growth inhibition is observed”.

With hyaluronate, the “phosphorylation state of merlin” value in assay [1] is on record as “Induced dephosphorylation of merlin”. For the same compound, the “PDGF-dependent phosphorylation of Erk / activation of merlin” value in assay [2] was “blocks the PDGF-dependent phosphorylation of Erk”. In assay [5], the “growth rate of NIH3T3 cells” value is listed as “reduced their growth rate”. For the same compound, the “level of cell division cycle inhibitor p27^Kip1” value in assay [3] is reported as “increased”. Also, the “induction of p21 and p27” value in assay [3] (hyaluronate-induced activation of merlin) is “induction of p21 and p27”. Moreover, the “growth of clone 54 cells” value in assay [4] (hyaluronate 100 μg/ml, with doxycyclin) is reported as “delays growth”.

For hyaluronidase, the “PDGF-dependent phosphorylation of Erk / activation of merlin” value in assay [2] is reported as “destroys the ligand responsible for the activation of merlin”. Also, in assay [4], the “merlin-dependent growth inhibition in confluent cell cultures” value is “prevents the inhibition of growth”.

In the case of `N#CC(=C(/N)Sc1ccccc1N)/C(C#N)=C(/N)Sc1ccccc1N` [UO126], in assay [6], the “hypophosphorylated Rb” value was “increase” and the “level of p27^Kip1” value is “higher level”.
